Assay results as given in patent US10874108B2, “Anti-microbial compositions” (5D HEALTH PROTECTION GROUP LTD, priority 2016, dated 2020).

Columns and labels:
[1] = system: E. faecalis ATCC 29212 biofilm; assay: MBEC model (ASTM E2799), liquid formulas; format: cell-based; conditions: treated 24 hours
Description: (§1) The MBEC model (ASTM E2799) was used to assess the anti-biofilm efficacy of the liquid formulas. Biofilms were grown on polystyrene pegs in the MBEC model for either 24 or 48 hours before treatment. Using the liquid form of the EDTA complexes 24- and 48-hour biofilms were tested (Table 20).
(§2) 24- and 48-hour biofilms were formed using MBEC plate method and treated for 24 hours. Technical replicates n=3. Log reduction (LR) values show±standard error (SE) of LR value.

[2] = system: S. aureus MRSA BAA-43 biofilm; assay: MBEC model (ASTM E2799), liquid formulas; format: cell-based; conditions: treated 24 hours
Description: as §1, §2

[3] = system: S. epidermidis ATCC 35984 biofilm; assay: MBEC model (ASTM E2799), liquid formulas; format: cell-based; conditions: treated 24 hours
Description: as §1, §2

[4] = system: S. aureus ATCC 29213 biofilm; assay: MBEC model (ASTM E2799), liquid formulas; format: cell-based; conditions: treated 24 hours
Description: as §1, §2

[5] = system: P. aeruginosa NCTC 10662 biofilm; assay: MBEC model (ASTM E2799), liquid formulas; format: cell-based; conditions: treated 24 hours
Description: as §1, §2

[6] = Cumulative elution from carbopol hydrogel; format: physicochemical
Description: Hydrogels were loaded with EDTA compounds and investigated for elution of the silver, zinc and EDTA. Carbopol ETD 2020 was obtained from Lubrizol Advanced Materials, Inc. USA. 1.2 g carbopol power was dissolved in 42.36 g deionized water for 1 hour to fully hydrate. Then 8.4 ml of the EDTA complexes and 4.8 g glycerine were added into carbopol solution with vigorous stirring; finally, 3 g 50% triethanolamine was dropped into the suspension to obtain final products: carbopol hydrogel with EDTA complexes.
The silver, zinc and EDTA increased in saline day by day, which indicated the release of silver, zinc and EDTA can be controlled from the hydrogel.

[7] = Elution from loaded gauze; format: physicochemical
Description: The gauzes were weighed before soaking, after soaking and after drying for 24 hours. To assess the elution profile of the EDTA complexes from gauze, the loaded gauzes were immersed in water and saline (Table 6 and Table 7). […] After day 2, the eluting of silver, zinc and EDTA decreased more than 5 times compared to day 1.

Compound: Silver
- Kill % ([1]; 50 ppm, 24-Hour Biofilm): 100%
- LR ([1]; 50 ppm, 24-Hour Biofilm): 6.35
- Kill % ([1]; 50 ppm, 48-Hour Biofilm): 100%
- LR ([1]; 50 ppm, 48-Hour Biofilm): 6.40
- Kill % ([1]; 100 ppm, 24-Hour Biofilm): 100%
- LR ([1]; 100 ppm, 24-Hour Biofilm): 6.35
- Kill % ([1]; 100 ppm, 48-Hour Biofilm): 100%
- LR ([1]; 100 ppm, 48-Hour Biofilm): 6.40
- Kill % ([2]; 50 ppm, 24-Hour Biofilm): 100%
- LR ([2]; 50 ppm, 24-Hour Biofilm): 5.40
- Kill % ([2]; 50 ppm, 48-Hour Biofilm): 100%
- LR ([2]; 50 ppm, 48-Hour Biofilm): 6.43
- Kill % ([2]; 100 ppm, 24-Hour Biofilm): 100%
- LR ([2]; 100 ppm, 24-Hour Biofilm): 5.40
- Kill % ([2]; 100 ppm, 48-Hour Biofilm): 100%
- LR ([2]; 100 ppm, 48-Hour Biofilm): 6.43
- Kill % ([3]; 50 ppm, 24-Hour Biofilm): 100%
- LR ([3]; 50 ppm, 24-Hour Biofilm): 6.09
- Kill % ([3]; 50 ppm, 48-Hour Biofilm): 100%
- LR ([3]; 50 ppm, 48-Hour Biofilm): 6.41
- Kill % ([3]; 100 ppm, 24-Hour Biofilm): 100%
- LR ([3]; 100 ppm, 24-Hour Biofilm): 6.09
- Kill % ([3]; 100 ppm, 48-Hour Biofilm): 100%
- LR ([3]; 100 ppm, 48-Hour Biofilm): 6.41
- Kill % ([4]; 50 ppm, 24-Hour Biofilm): 100%
- LR ([4]; 50 ppm, 24-Hour Biofilm): 6.44
- Kill % ([4]; 50 ppm, 48-Hour Biofilm): 100%
- LR ([4]; 50 ppm, 48-Hour Biofilm): 6.50
- Kill % ([4]; 100 ppm, 24-Hour Biofilm): 100%
- LR ([4]; 100 ppm, 24-Hour Biofilm): 6.44
- Kill % ([4]; 100 ppm, 48-Hour Biofilm): 100%
- LR ([4]; 100 ppm, 48-Hour Biofilm): 6.50
- Kill % ([5]; 50 ppm, 24-Hour Biofilm): 100%
- LR ([5]; 50 ppm, 24-Hour Biofilm): 7.44
- Kill % ([5]; 50 ppm, 48-Hour Biofilm): 100%
- LR ([5]; 50 ppm, 48-Hour Biofilm): 8.44
- Kill % ([5]; 100 ppm, 24-Hour Biofilm): 100%
- LR ([5]; 100 ppm, 24-Hour Biofilm): 7.44
- Kill % ([5]; 100 ppm, 48-Hour Biofilm): 100%
- LR ([5]; 100 ppm, 48-Hour Biofilm): 8.44

Compound: O=C([O-])CN(CCN(CC(=O)[O-])CC(=O)[O-])CC(=O)[O-].[Ag+].[Ag+].[Zn+2] [EDTA compound 4, sample 2]
- Elution in saline (ppm) EDTA ([6]; day 1): 16.64 ± 1.41 ppm
- Elution in saline (ppm) Silver ([6]; day 1): 21.10 ± 1.80 ppm
- Elution in saline (ppm) Zinc ([6]; day 1): 15.30 ± 2.12 ppm
- Elution in water (ppm) EDTA ([6]; day 1): 20.80 ± 3.07 ppm
- Elution in water (ppm) Silver ([6]; day 1): 28.41 ± 3.48 ppm
- Elution in water (ppm) Zinc ([6]; day 1): 20.77 ± 3.25 ppm
- Elution in saline (ppm) EDTA ([6]; day 2): 17.31 ± 1.43 ppm
- Elution in saline (ppm) Silver ([6]; day 2): 26.06 ± 2.03 ppm
- Elution in saline (ppm) Zinc ([6]; day 2): 20.51 ± 3.94 ppm
- Elution in water (ppm) EDTA ([6]; day 2): 22.50 ± 2.86 ppm
- Elution in water (ppm) Silver ([6]; day 2): 29.03 ± 4.71 ppm
- Elution in water (ppm) Zinc ([6]; day 2): 23.57 ± 2.12 ppm
- Elution in saline (ppm) EDTA ([6]; day 3): 21.81 ± 0.42 ppm
- Elution in saline (ppm) Silver ([6]; day 3): 31.27 ± 0.96 ppm
- Elution in saline (ppm) Zinc ([6]; day 3): 23.98 ± 1.92 ppm
- Elution in water (ppm) EDTA ([6]; day 3): 24.64 ± 1.57 ppm
- Elution in water (ppm) Silver ([6]; day 3): 29.12 ± 2.73 ppm
- Elution in water (ppm) Zinc ([6]; day 3): 22.53 ± 7.30 ppm
- Elution in saline (ppm) EDTA ([6]; day 4): 22.70 ± 1.70 ppm
- Elution in saline (ppm) Silver ([6]; day 4): 32.50 ± 0.96 ppm
- Elution in saline (ppm) Zinc ([6]; day 4): 26.11 ± 1.08 ppm
- Elution in water (ppm) EDTA ([6]; day 4): 24.30 ± 1.51 ppm
- Elution in water (ppm) Silver ([6]; day 4): 29.89 ± 3.51 ppm
- Elution in water (ppm) Zinc ([6]; day 4): 22.23 ± 1.97 ppm
- Elution in saline (ppm) EDTA ([6]; day 5): 25.02 ± 0.96 ppm
- Elution in saline (ppm) Silver ([6]; day 5): 37.54 ± 0.61 ppm
- Elution in saline (ppm) Zinc ([6]; day 5): 27.28 ± 3.01 ppm
- Elution in water (ppm) EDTA ([6]; day 5): 23.03 ± 3.46 ppm
- Elution in water (ppm) Silver ([6]; day 5): 30.64 ± 5.25 ppm
- Elution in water (ppm) Zinc ([6]; day 5): 23.54 ± 1.23 ppm
- Elution in saline (ppm) EDTA ([7]; day 1): 17.31 ± 1.77 ppm
- Elution in saline (ppm) Silver ([7]; day 1): 27.32 ± 3.84 ppm
- Elution in saline (ppm) Zinc ([7]; day 1): 22.71 ± 1.75 ppm
- Elution in water (ppm) EDTA ([7]; day 1): 13.23 ± 1.28 ppm
- Elution in water (ppm) Silver ([7]; day 1): 23.32 ± 3.95 ppm
- Elution in water (ppm) Zinc ([7]; day 1): 17.08 ± 3.09 ppm
- Elution in saline (ppm) EDTA ([7]; day 2): 6.84 ± 2.67 ppm
- Elution in saline (ppm) Silver ([7]; day 2): 8.36 ± 2.37 ppm
- Elution in saline (ppm) Zinc ([7]; day 2): 7.67 ± 2.03 ppm
- Elution in water (ppm) EDTA ([7]; day 2): 8.74 ± 2.01 ppm
- Elution in water (ppm) Silver ([7]; day 2): 16.28 ± 3.75 ppm
- Elution in water (ppm) Zinc ([7]; day 2): 12.78 ± 1.55 ppm
- Elution in saline (ppm) EDTA ([7]; day 3): 1.75 ± 0.31 ppm
- Elution in saline (ppm) Silver ([7]; day 3): 2.55 ± 0.94 ppm
- Elution in saline (ppm) Zinc ([7]; day 3): 3.70 ± 0.20 ppm
- Elution in water (ppm) EDTA ([7]; day 3): 1.55 ± 0.56 ppm
- Elution in water (ppm) Silver ([7]; day 3): 3.82 ± 1.39 ppm
- Elution in water (ppm) Zinc ([7]; day 3): 4.21 ± 1.19 ppm
- Elution in saline (ppm) EDTA ([7]; day 4): 1.11 ± 0.61 ppm
- Elution in saline (ppm) Silver ([7]; day 4): 1.46 ± 0.99 ppm
- Elution in saline (ppm) Zinc ([7]; day 4): 3.48 ± 0.68 ppm
- Elution in water (ppm) EDTA ([7]; day 4): 1.13 ± 0.57 ppm
- Elution in water (ppm) Silver ([7]; day 4): 1.42 ± 0.40 ppm
- Elution in water (ppm) Zinc ([7]; day 4): 3.37 ± 0.26 ppm
- Elution in saline (ppm) EDTA ([7]; day 5): 0.54 ± 0.11 ppm
- Elution in saline (ppm) Silver ([7]; day 5): 1.57 ± 1.43 ppm
- Elution in saline (ppm) Zinc ([7]; day 5): 2.95 ± 1.46 ppm
- Elution in water (ppm) EDTA ([7]; day 5): 0.79 ± 0.19 ppm
- Elution in water (ppm) Silver ([7]; day 5): 0.59 ± 0.35 ppm
- Elution in water (ppm) Zinc ([7]; day 5): 2.49 ± 0.88 ppm
